In patent US20250313562A1, “Substituted tricyclic ligands for FK506-binding proteins for treatment of diseases” (Technische Universität Darmstadt, priority 2024, published 2025):

Experiments:
FKBP51 [1] = molecular target: T1, FKBP51 (Homo sapiens, UniProt Q13451); assay: competitive fluorescence polarization assay, FKBP51; assay type: binding
T1 sequence (Q13451 1-457): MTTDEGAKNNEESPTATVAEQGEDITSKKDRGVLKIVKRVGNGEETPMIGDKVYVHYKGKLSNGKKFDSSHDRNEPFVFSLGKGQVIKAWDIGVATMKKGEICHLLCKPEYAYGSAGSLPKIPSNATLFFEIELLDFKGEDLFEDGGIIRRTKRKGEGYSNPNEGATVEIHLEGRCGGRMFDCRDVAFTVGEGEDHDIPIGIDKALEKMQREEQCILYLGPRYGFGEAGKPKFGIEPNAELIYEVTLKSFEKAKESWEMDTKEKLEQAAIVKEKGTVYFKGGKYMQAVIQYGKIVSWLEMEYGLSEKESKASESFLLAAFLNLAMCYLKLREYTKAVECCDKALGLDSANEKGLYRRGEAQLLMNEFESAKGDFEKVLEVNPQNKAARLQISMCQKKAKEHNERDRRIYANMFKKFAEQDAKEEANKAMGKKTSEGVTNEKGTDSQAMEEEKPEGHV
Procedure: (§1) Affinity determination by competitive fluorescence polarization assay. The synthesized tricyclic sulfonamides were tested for their binding affinities to human FKBPs (FKBP12 and FKBP51) by the fluorescence polarization assay (Table 1).

FKBP12 [2] = molecular target: T2, FKBP12 (Homo sapiens, UniProt P62942); assay: competitive fluorescence polarization assay, FKBP12; assay type: binding
T2 sequence (P62942 whole entry): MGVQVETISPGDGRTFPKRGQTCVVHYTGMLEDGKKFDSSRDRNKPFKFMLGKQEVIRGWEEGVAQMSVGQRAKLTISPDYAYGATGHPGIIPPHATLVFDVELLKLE
Procedure: as §1

FKBP12 [3] = molecular target: T2, FKBP12; assay: nanoBRET assay, intracellular FKBP12 occupancy in HEK293T cells; assay type: cell-based; settings: for IC50: intracellular occupancy
Procedure: (§2) For compounds 31 and 32 target engagement of FKBP12 and FKBP51 in the HEK293T cells was tested (Table 2).

FKBP51 [4] = molecular target: T1, FKBP51; assay: nanoBRET assay, intracellular FKBP51 occupancy in HEK293T cells; assay type: cell-based; settings: for IC50: intracellular occupancy; for displacement of the tracer for FKBP51 (potency in words): nanoBRET
Procedure: as §2

| SMILES | Ki (FKBP51 [1]) [nM] | Ki (FKBP12 [2]) [nM] | IC50 (FKBP12 [3]) [nM] | competition with the tracer for FKBP12 (potency in words) (FKBP12 [3]; nanoBRET) | IC50 (FKBP51 [4]) [nM] | displacement of the tracer for FKBP51 (potency in words) (FKBP51 [4]) |
| --- | --- | --- | --- | --- | --- | --- |
| CC1CCN(C(=O)[C@@H]2CC[C@H]3[C@H](CO)C4CCCC(C(=O)N23)N4S(=O)(=O)c2cc(Cl)cc(Cl)c2)CC1 (stereo in doubt) [Compound 32] | 0.72 ± 0.2 | 0.019 ± 0.007 | 0.49 ± 0.04 | subnanomolar potency | 3.3 ± 0.3 | low nanomolar potency |
| CCNC(=O)[C@@H]1CC[C@H]2[C@H](CO)C3CCCC(C(=O)N12)N3S(=O)(=O)c1cc(Cl)cc(Cl)c1 (stereo in doubt) [Compound 31] | 0.76 ± 0.2 | 0.013 ± 0.004 | 3.9 ± 0.3 |  | 8.5 ± 0.6 | low nanomolar potency |
| C=C[C@@H]1C2CCCC(C(=O)N3[C@H](C(=O)N(C)C)CC[C@@H]13)N2S(=O)(=O)c1cc(Cl)cc(Cl)c1 (stereo partly drawn) [Compound 23] | 121 ± 8 | 2.3 ± 0.2 |  |  |  |  |
| C=C[C@H]1[C@@H]2CC[C@@H](c3ccccn3)N2C(=O)C2CCC[C@@H]1N2S(=O)(=O)c1cc(Cl)cc(Cl)c1 [Compound 30] | 464 ± 79 | 12 ± 1.6 |  |  |  |  |
| C=C[C@@H]1C2CCCC(C(=O)N3[C@H](C(=O)O)CC[C@@H]13)N2S(=O)(=O)c1cc(Cl)cc(Cl)c1 (stereo partly drawn) [Compound 3] | 698 ± 49 | 12 ± 1.7 |  |  |  |  |
| C=C[C@@H]1C2CCCC(C(=O)N3[C@H](C(=O)OC)CC[C@@H]13)N2S(=O)(=O)c1cc(Cl)cc(Cl)c1 (stereo partly drawn) [Compound 20] | 76 ± 10 | 1 ± 0.1 |  |  |  |  |

Continued by falling Ki (FKBP51 [1]), values first:

| Ki (FKBP51 [1]) [nM] | Ki (FKBP12 [2]) [nM] | SMILES | IC50 (FKBP12 [3]) [nM] | competition with the tracer for FKBP12 (potency in words) (FKBP12 [3]; nanoBRET) | IC50 (FKBP51 [4]) [nM] | displacement of the tracer for FKBP51 (potency in words) (FKBP51 [4]) |
| --- | --- | --- | --- | --- | --- | --- |
| 52 ± 6 | 0.72 ± 0.1 | C=C[C@@H]1C2CCCC(C(=O)N3[C@H](C(=O)N4C[C@@H]5C[C@H]4CN5)CC[C@@H]13)N2S(=O)(=O)c1cc(Cl)cc(Cl)c1 [Compound 28] |  |  |  |  |
| 18 ± 3 | 0.48 ± 0.08 | C=C[C@@H]1C2CCCC(C(=O)N3[C@H](C(N)=O)CC[C@@H]13)N2S(=O)(=O)c1cc(Cl)cc(Cl)c1 (stereo partly drawn) [Compound 21] |  |  |  |  |
| 17 ± 1.7 | 0.55 ± 0.07 | C=C[C@@H]1C2CCCC(C(=O)N3[C@H](C(=O)N4C[C@@H]5C[C@H]4CN5C)CC[C@@H]13)N2S(=O)(=O)c1cc(Cl)cc(Cl)c1 [Compound 27] |  |  |  |  |
| 11 ± 0.7 | 0.16 ± 0.018 | C=C[C@@H]1C2CCCC(C(=O)N3[C@H](C(=O)N4CCN(C)CC4)CC[C@@H]13)N2S(=O)(=O)c1cc(Cl)cc(Cl)c1 (stereo partly drawn) [Compound 26] |  |  |  |  |
| 7.7 ± 0.9 | 0.32 ± 0.04 | C=C[C@@H]1C2CCCC(C(=O)N3[C@H](C(=O)NC)CC[C@@H]13)N2S(=O)(=O)c1cc(Cl)cc(Cl)c1 (stereo partly drawn) [Compound 22] |  |  |  |  |
| 1.1 ± 0.4 | 0.043 ± 0.01 | C=C[C@@H]1C2CCCC(C(=O)N3[C@H](C(=O)NCC)CC[C@@H]13)N2S(=O)(=O)c1cc(Cl)cc(Cl)c1 (stereo partly drawn) [Compound 24] |  |  |  |  |
| 0.93 ± 0.2 | 0.067 ± 0.01 | C=C[C@@H]1C2CCCC(C(=O)N3[C@H](C(=O)N4CCC(C)CC4)CC[C@@H]13)N2S(=O)(=O)c1cc(Cl)cc(Cl)c1 (stereo partly drawn) [Compound 25] |  |  |  |  |
